This data set can be described thus: Human HepG2 cell viability assay in 384 well format. On the set-up: dose 125 nL, time 70.5 hour; cytotoxicity at 70.5 h: concentration not given beside the values. Format: toxicity, cell-based. Particulars: HepG2 cells, read-out: Inhibition.
Consider `CCC1(CC)Cc2ccccc2-c2nc(NCCCO)[nH]c(=O)c21`, for which the cytotoxicity at 70.5 h is -14.8%.
For the compound `c1ccc(CN2CCC3(CC2)Nc2ccccc2CO3)cc1`, the cytotoxicity at 70.5 h is -6.59%.
Regarding `CCC1(C)Cc2ccccc2-c2nc(NCCCO)nc(O)c21` (stereo not given), the cytotoxicity at 70.5 h was -4.42%.
As to `c1cnc(N2CCO[C@H]3[C@H](OCCN4CCOCC4)CC[C@@H]32)nc1`, the cytotoxicity at 70.5 h is -2.53%.
As for `COc1cccc(CC(=O)N2CC[C@@H]3NC(=O)CC[C@@H]32)c1`, the cytotoxicity at 70.5 h was -0.893%.
For the compound `CC(C)NC(=O)C1CN(Cc2cccs2)Cc2ccnn2C1` (stereo not given), the cytotoxicity at 70.5 h was 3.45%.
Then `Cc1ncsc1C(=O)N1CC[C@@H]2[C@@H](CC1)OCCN2c1cccnc1`, with -8.57%; and `CC(=O)N1CCS(=O)(=O)[C@@H]2CCN(S(=O)(=O)CC(C)C)CC[C@@H]21`, with -6.44%; and `COCc1nn(C)c2c1CN(C(=O)c1ccno1)CC2`, with -9.37%.
As to `Cc1nocc1C(=O)N1CCCC2(CCN(c3ccsc3)C2=O)C1` (stereo not given), the cytotoxicity at 70.5 h was -6.39%.
Take `Cc1oncc1C(=O)N1CCCc2c(C#N)nn(C)c2C1`: the cytotoxicity at 70.5 h was -7.62%.
Then `Cc1csc(CN2CC[C@H]3C[C@H](c4ccncn4)O[C@@H]3C2)n1`, with -2.15%; and `CNC(=O)C1Cn2ccnc2C2(CCN(c3ccc(C)nn3)CC2)O1` (stereo not given), with -0.593%; and `Cc1nc(CN2CCO[C@H]3CN(C(=O)c4cscn4)C[C@H]32)cs1`, with -5.86%.
With `COCC1CC2(CCN(C(=O)c3ccc(F)cc3C)CC2)CO1` (stereo not given), the cytotoxicity at 70.5 h is -2.86%.
For `Cc1nc(CN2CC[C@H]3C[C@H](c4ccncn4)O[C@@H]3C2)cs1`, the cytotoxicity at 70.5 h is -3.68%.
Take `CNC(=O)C1Cn2ccnc2C2(CCN(C(=O)c3ccccn3)CC2)O1` (stereo not given): the cytotoxicity at 70.5 h was -2.1%.
As to `Cc1ccc(C(=O)N2C[C@@H]3C[C@@H](c4nnc(C5CC5)o4)O[C@@H]3C2)s1`, the cytotoxicity at 70.5 h was -3.56%.
`O=C(c1ncccn1)N1C[C@@H]2COC[C@]2(COCc2cccnc2)C1`: the cytotoxicity at 70.5 h was -5.13%.
`O=C(O)c1nnn(-c2ccccc2F)c1-c1ccncc1`: the cytotoxicity at 70.5 h turned out to be 5.16%.
In the case of `O=C(O)c1nnn(-c2ccccc2)c1-c1ccncc1`, the cytotoxicity at 70.5 h was -30.6%.
To `COc1ccc(N2CCN(CC(O)c3ccc(C)cc3C)CC2)cc1` (stereo not given) belongs -3.49%; to `CN1CCc2c(C#N)c(NCCc3ccccc3)n3cnnc3c2C1`, -12.4%.
For the compound `NC(=O)c1ccc(NC(=O)Cn2cc(I)cn2)cc1`, the cytotoxicity at 70.5 h was -13.1%.
In the case of `O=C(Cn1ccc2cc(Br)ccc21)NCc1ccc(C(=O)O)cc1`, the cytotoxicity at 70.5 h is -27.5%.
In the case of `O=C(CCn1ccc2ccc(Br)cc21)NCc1ccc(C(=O)O)cc1`, the cytotoxicity at 70.5 h is -21.2%.
Consider `O=C(COc1coc(CN2CCSCC2)cc1=O)c1ccccc1`, for which the cytotoxicity at 70.5 h was -24.2%.
Then `O=C(Cn1ccc2ccc(Cl)cc21)NCc1ccc(C(=O)O)cc1`, with -2.47%.
On to `COCCNc1c(C#N)c2c(c3nncn13)CN(C)CC2`, for which the cytotoxicity at 70.5 h is -5.01%.
On to `CCOc1ccc(NC(=O)Cn2cc(I)cn2)cc1`, for which the cytotoxicity at 70.5 h is -18.2%.
As to `CCOC(=O)c1ccc(NC(=O)Cn2cc(I)cn2)cc1`, the cytotoxicity at 70.5 h is -4.39%.
With `N#CCc1ccc(NC(=O)Cn2cc(I)cn2)cc1`, the cytotoxicity at 70.5 h is -9.71%.
In the case of `Cc1nc(-c2ccccc2)cc2nn(CC(N)=O)c(=O)n12`, the cytotoxicity at 70.5 h was -2.53%.
Then `CCN(CC)C(=O)Cn1c(-c2ccc(Cl)cc2)nc(C)c(CCO)c1=O`, with 0.81%; and `CC/N=c1\nc(NCC)nc2n1C(O)(Nc1cccc(C)c1C)CS2` (stereo not given), with -6.29%.
For `COc1ccc(-c2cc3nn(CC(N)=O)c(=O)n3c(C)n2)cc1`, the cytotoxicity at 70.5 h was -7.26%.
Regarding `Cc1nc(-c2ccc(Cl)cc2)n(CC(=O)NC(C)C)c(=O)c1CCO`, the cytotoxicity at 70.5 h was -8.99%.
To `COc1ccc(-c2cc3nn(CC(=O)NC(C)C)c(=O)n3c(C)n2)cc1` belongs 1.34%.
On to `O=c1[nH]nc2c(S(=O)(=O)N3CCCCCC3)cccn12`, for which the cytotoxicity at 70.5 h was -7.77%.
As to `O=c1[nH]nc2c(S(=O)(=O)N3CCCCC3)cccn12`, the cytotoxicity at 70.5 h was -0.253%.
Take `CSc1nc2ncc3c(=O)n(C)ccc3n2n1`: the cytotoxicity at 70.5 h is -8.16%.
Take `CCCc1nnc2sc(-c3cc(C(C)C)n[nH]3)nn12`: the cytotoxicity at 70.5 h worked out at 15.4%.
In the case of `c1ccc(-c2nnc3sc(CCN4CCCCCC4)nn23)cc1`, the cytotoxicity at 70.5 h was -11.1%.
For `c1ccc2c(c1)COC1(CCCCC1)N2`, the cytotoxicity at 70.5 h is -4.51%.
Then `CC(C)Cc1nnc2sc(-c3cc(C(C)C)n[nH]3)nn12`, with 12.3%; and `CC(=O)Nc1sc2c(c1C(=O)O)CCc1ccccc1-2`, with -11.4%.
To `O=C(Cc1ccc2c(c1)OCCCO2)Nc1nnn[nH]1` belongs -6.98%; to `O=C(Cc1ccc2c(c1)OCC2)Nc1nc(C(F)(F)F)n[nH]1`, 0.788%; to `O=c1ccc(-c2ccccc2F)nn1CN1CCCCCC1`, -4.57%.
`Cc1ccccc1CSc1ncc(Br)c(C(=O)O)n1`: the cytotoxicity at 70.5 h is -5.71%.
In the case of `Cc1noc(-c2ccc(N3CCCC(C(=O)O)C3)nc2)n1` (stereo not given), the cytotoxicity at 70.5 h is -3.67%.
As for `O=C(NCCCn1cccn1)C1(c2ccccc2)CCOCC1`, the cytotoxicity at 70.5 h is -10.8%.
For the compound `Cc1ccc(C2(C(=O)NCCCn3cccn3)CCOCC2)cc1`, the cytotoxicity at 70.5 h stood at 14.4%.
For the compound `O=C(O)c1cnc(N2CCC(O)CC2)nc1COc1ccc(F)cc1`, the cytotoxicity at 70.5 h was -21.6%.
To `O=C(O)c1cnc(N2CCC(O)CC2)nc1COc1cccc(F)c1` belongs -12.9%.
As to `Cc1ccc2c(c1)C(NC(C)C)CC21CCNCC1` (stereo not given), the cytotoxicity at 70.5 h was -1.86%.
Then `CN1CCc2c(C#N)c(NCC3CCCO3)n3cnnc3c2C1` (stereo not given), with -5.45%; and `CCOc1ccc(Cl)cc1C1CCCCN1` (stereo not given), with -17.3%; and `Cc1ccc2c(c1)C1(CCNCC1)CC2NC(C)C` (stereo not given), with -2.54%.
In the case of `CC(C)NC1CC2(CCNCC2)c2cc(F)ccc21` (stereo not given), the cytotoxicity at 70.5 h was -2.34%.
To `CCOc1c(CNCCCn2ccnc2)cc(Cl)cc1OC` belongs -5.3%; to `CCOc1ccc(CNCCCn2ccnc2)cc1Cl`, 0.65%.
In the case of `O=C(CO[C@@H]1CC[C@H]2[C@H]1OCCN2c1ncccn1)N1CCCC1`, the cytotoxicity at 70.5 h is -0.322%.
Then `Cc1cccc(CN2Cc3[nH]nc(COCc4nccs4)c3C2)n1`, with -0.324%; and `Cc1ccc(N2CCO[C@H]3[C@H](OCC(=O)N4CCCC4)CC[C@@H]32)cc1`, with -1.99%; and `COc1cccc(CN2CCC3(CC2)CCN(c2ncc(F)cn2)C3)c1`, with 0.909%.
Turning to `CNC(=O)COC1COC2(CCN(c3ccc(C)nn3)CC2)C1` (stereo not given), the cytotoxicity at 70.5 h was found to be 0.115%.
With `N#Cc1cccc(CN2CC3(CCCCN3c3cccnc3)CC2=O)c1` (stereo not given), the cytotoxicity at 70.5 h is -1.1%.
To `CCS(=O)(=O)N1Cc2nnn(C)c2C(COCCN(C)C)C1` (stereo not given) belongs -0.313%; to `CC(C)CN1CCS(=O)(=O)[C@@H]2CCN(S(=O)(=O)c3ccccc3)CC[C@@H]21`, -1.95%; to `COCCN1C(=O)CC[C@]12CC[C@@H](NCc1cccc(C)n1)CC2`, 0.785%.
Consider `O=C(c1cc[nH]n1)N1CC[C@@H]2CN(Cc3ccccc3)S(=O)(=O)[C@@H]2CC1`, for which the cytotoxicity at 70.5 h was -13.3%.
As for `CC(C)CN1CCS(=O)(=O)[C@@H]2CCN(S(=O)(=O)N(C)C)CC[C@@H]21`, the cytotoxicity at 70.5 h was -5.76%.
Then `COc1ccc(CN2CC[C@@H]3CN(S(C)(=O)=O)CCO[C@@H]3C2)cc1`, with -2.97%.
Regarding `CS(=O)(=O)N1CCCC12CCN(Cc1nccs1)CC2`, the cytotoxicity at 70.5 h was -3.49%.
Take `Cn1nc(COCC2CC2)c2c1CN(C(=O)c1ccno1)CC2`: the cytotoxicity at 70.5 h was -9.87%.
Then `COCCN1C(=O)CC[C@]12CC[C@@H](NCc1nccs1)CC2`, with -6.2%; and `CN1CCN(CC2CC2)C(=O)C12CCN(C(=O)c1ccnnc1)CC2`, with -5.46%.
On to `CS(=O)(=O)N1CCO[C@@H]2CN(Cc3ccc(F)cc3)CC[C@@H]2C1`, for which the cytotoxicity at 70.5 h is -4.41%.
As to `CC(=O)N1CC[C@@H]2CN(Cc3ccncc3)S(=O)(=O)[C@@H]2CC1`, the cytotoxicity at 70.5 h is 0.262%.
As to `CCS(=O)(=O)N1CC[C@@H]2[C@H](CC1)N(CC(C)C)CCS2(=O)=O`, the cytotoxicity at 70.5 h was -1.74%.
With `Cc1ccc(C(=O)N2CCO[C@H]3[C@H](OCc4ccccn4)CC[C@@H]32)o1`, the cytotoxicity at 70.5 h is -3.92%.
Regarding `CS(=O)(=O)N1CC[C@]2(C[C@@H](Oc3ccccn3)CO2)C1`, the cytotoxicity at 70.5 h was -3.36%.
To `CS(=O)(=O)N1CCC2(CC1)CC(Oc1ccccn1)CO2` (stereo not given) belongs -3.34%.
To `Cc1ccc(C(=O)N2CCO[C@H]3[C@H](OCCN(C)C)CC[C@@H]32)o1` belongs -4.42%.
Take `Cc1ccc(CN2CCOCC3(C2)CN(c2ccc(C)s2)C(=O)CO3)o1` (stereo not given): the cytotoxicity at 70.5 h was found to be 0.222%.
Turning to `Cc1cc(CN2C[C@@H]3CCCO[C@@H]3[C@H](N(C)C(C)C)C2)no1`, the cytotoxicity at 70.5 h was -3.76%.
Consider `Cc1ncsc1CN1C[C@@H]2CCCO[C@@H]2[C@H](N(C)C(C)C)C1`, for which the cytotoxicity at 70.5 h is -4.74%.
Then `O=C(c1cnccn1)N1CCCC2(CCN(Cc3cccnc3)C2)C1` (stereo not given), with -4.19%; and `COCCN1C[C@@H]2CN(Cc3ccoc3)CCC[C@]2(C(=O)O)C1`, with -1.11%.
To `O=C1COC2(COCCN(Cc3cccnc3)C2)CN1c1ccccc1` (stereo not given) belongs -0.932%; to `COc1ncccc1CN1C[C@@H]2OCCN(CCN(C)C)[C@@H]2C1`, -3.67%; to `COc1ccc2c(c1)C1(CCN(Cc3cccnc3)CC1)N(C)CC2`, -1.98%.
Turning to `O=C(CN(C1=NCCCCC1)c1ccc(Cl)cc1)c1ccccc1`, the cytotoxicity at 70.5 h came out at 10.9%.
Then `Cc1cccc(N(CC(=O)c2ccccc2)C2=NCCCCC2)c1`, with -11.4%.

The record behind these values is ChEMBL document CHEMBL3507680, “University of Dundee, Gates Library screen for HepG2 cell viability”.
